Reference: the NIST ThermoML archive (doi:10.1016/j.jct.2010.03.002)
Numbers after ± are expanded uncertainties.

Assay: xn = mol fraction of the nth substance listed
Settings: 101 kPa, Liquid; for viscosity: Capillary tube (Ostwald / Ubbelohde) method; for mass density: Vibrating tube method

CCCCCCn1cc[n+](C)c1.[Br-] [3-hexyl-1-methyl-1H-imidazolium bromide] + O
Settings	mass density, 293.15 K [kg/m3]	mass density, 303.15 K [kg/m3]	mass density, 313.15 K [kg/m3]	mass density, 323.15 K [kg/m3]	mass density, 333.15 K [kg/m3]	viscosity, 293.15 K [mPa·s]	viscosity, 303.15 K [mPa·s]	viscosity, 313.15 K [mPa·s]	viscosity, 323.15 K [mPa·s]	viscosity, 333.15 K [mPa·s]
x2 = 0	1227.4 ± 1.7	1220.1 ± 1.7	1213.3 ± 1.7	1205.7 ± 1.7	1198.6 ± 1.6	6936 ± 750	2239 ± 200	851.65 ± 56	512.14 ± 27	350.69 ± 16
x2 = 0.1225	1223.4 ± 1.4	1216.1 ± 1.4	1209.3 ± 1.3	1201.8 ± 1.3	1194.6 ± 1.3	3519 ± 330	1255 ± 94	503.66 ± 27	302.69 ± 13	201.69 ± 6.7
x2 = 0.2196	1220.4 ± 1.1	1213.2 ± 1.1	1206.4 ± 1.1	1198.8 ± 1.1	1191.5 ± 1.1	1578 ± 120	695.45 ± 42	320.14 ± 14	180.56 ± 5.7	115.66 ± 2.6
x2 = 0.2978	1217.9 ± 1	1210.8 ± 1	1204 ± 0.9	1196.2 ± 0.9	1189 ± 0.9	776.62 ± 48	395.49 ± 19	194.1 ± 6.6	117.64 ± 2.7	77.41 ± 1.2
x2 = 0.348	1216.3 ± 0.9	1209 ± 0.9	1202.2 ± 0.8	1194.6 ± 0.8	1187.4 ± 0.8	507.8 ± 27	265.62 ± 11	143.5 ± 3.9	89.65 ± 1.6	57.52 ± 0.74
x2 = 0.4166	1213.4 ± 0.7	1206.2 ± 0.7	1199.5 ± 0.7	1192 ± 0.7	1184.8 ± 0.7	313.52 ± 13	168.31 ± 5.1	97.98 ± 1.9	60.85 ± 0.76	40.03 ± 0.5
x2 = 0.504	1208.7 ± 0.6	1201.6 ± 0.6	1194.9 ± 0.6	1187.5 ± 0.6	1180.3 ± 0.6	173.73 ± 5.2	98.93 ± 2	60.18 ± 0.75	38.59 ± 0.46	26.69 ± 0.31
x2 = 0.5701	1203.9 ± 0.5	1196.8 ± 0.5	1190.1 ± 0.5	1182.7 ± 0.5	1175.8 ± 0.5	111.42 ± 2.3	65.77 ± 0.89	41.24 ± 0.49	27.69 ± 0.3	19.36 ± 0.21
x2 = 0.6405	1196.9 ± 0.4	1189.9 ± 0.4	1183.3 ± 0.4	1176 ± 0.4	1169 ± 0.4	70.83 ± 0.91	43.45 ± 0.53	28.14 ± 0.31	19.39 ± 0.19	14.63 ± 0.15
x2 = 0.7285	1184.3 ± 0.3	1177.3 ± 0.3	1170.7 ± 0.3	1163.5 ± 0.3	1156.5 ± 0.3	36.4 ± 0.45	22.54 ± 0.26	15.13 ± 0.16	10.75 ± 0.1	7.929 ± 0.067
x2 = 0.816	1163.7 ± 0.2	1156.9 ± 0.2	1150.1 ± 0.2	1142.9 ± 0.2	1136.3 ± 0.2	18.13 ± 0.2	12.1 ± 0.13	8.492 ± 0.076	–	4.762 ± 0.058
x2 = 0.9048	1123.6 ± 0.2	1117.3 ± 0.2	1110.7 ± 0.2	1104.4 ± 0.2	1097.6 ± 0.2	6.655 ± 0.059	4.764 ± 0.047	3.519 ± 0.033	2.744 ± 0.025	2.184 ± 0.02
x2 = 0.9241	1109.4 ± 0.2	1103.6 ± 0.2	1097 ± 0.2	1090.9 ± 0.1	1084.2 ± 0.1	4.951 ± 0.046	3.619 ± 0.035	2.764 ± 0.025	2.165 ± 0.019	1.733 ± 0.016
x2 = 0.944	1091.2 ± 0.1	1085.4 ± 0.1	1079.5 ± 0.1	1073.6 ± 0.1	1067.2 ± 0.1	3.48 ± 0.032	2.622 ± 0.023	–	1.6 ± 0.016	1.301 ± 0.012
x2 = 0.9613	1070.9 ± 0.1	1065.7 ± 0.1	1060.4 ± 0.1	1054.7 ± 0.1	1048.5 ± 0.1	2.438 ± 0.023	1.86 ± 0.017	1.469 ± 0.012	–	0.982 ± 0.013
x2 = 0.9899	1022.6 ± 0.1	1019.2 ± 0.1	1015.1 ± 0.1	1010.1 ± 0.1	1004.2 ± 0.1	1.342 ± 0.014	1.047 ± 0.01	0.846 ± 0.008	0.695 ± 0.006	0.588 ± 0.006
